Data taken from ChEMBL document CHEMBL1150384, “Design, synthesis, and evaluation of potential inhibitors of nitric oxide synthase” (Bioorg Med Chem, 2008).

Target: Nitric oxide synthase 1 (Homo sapiens, UniProt P29475)
Sequence (P29475 whole entry): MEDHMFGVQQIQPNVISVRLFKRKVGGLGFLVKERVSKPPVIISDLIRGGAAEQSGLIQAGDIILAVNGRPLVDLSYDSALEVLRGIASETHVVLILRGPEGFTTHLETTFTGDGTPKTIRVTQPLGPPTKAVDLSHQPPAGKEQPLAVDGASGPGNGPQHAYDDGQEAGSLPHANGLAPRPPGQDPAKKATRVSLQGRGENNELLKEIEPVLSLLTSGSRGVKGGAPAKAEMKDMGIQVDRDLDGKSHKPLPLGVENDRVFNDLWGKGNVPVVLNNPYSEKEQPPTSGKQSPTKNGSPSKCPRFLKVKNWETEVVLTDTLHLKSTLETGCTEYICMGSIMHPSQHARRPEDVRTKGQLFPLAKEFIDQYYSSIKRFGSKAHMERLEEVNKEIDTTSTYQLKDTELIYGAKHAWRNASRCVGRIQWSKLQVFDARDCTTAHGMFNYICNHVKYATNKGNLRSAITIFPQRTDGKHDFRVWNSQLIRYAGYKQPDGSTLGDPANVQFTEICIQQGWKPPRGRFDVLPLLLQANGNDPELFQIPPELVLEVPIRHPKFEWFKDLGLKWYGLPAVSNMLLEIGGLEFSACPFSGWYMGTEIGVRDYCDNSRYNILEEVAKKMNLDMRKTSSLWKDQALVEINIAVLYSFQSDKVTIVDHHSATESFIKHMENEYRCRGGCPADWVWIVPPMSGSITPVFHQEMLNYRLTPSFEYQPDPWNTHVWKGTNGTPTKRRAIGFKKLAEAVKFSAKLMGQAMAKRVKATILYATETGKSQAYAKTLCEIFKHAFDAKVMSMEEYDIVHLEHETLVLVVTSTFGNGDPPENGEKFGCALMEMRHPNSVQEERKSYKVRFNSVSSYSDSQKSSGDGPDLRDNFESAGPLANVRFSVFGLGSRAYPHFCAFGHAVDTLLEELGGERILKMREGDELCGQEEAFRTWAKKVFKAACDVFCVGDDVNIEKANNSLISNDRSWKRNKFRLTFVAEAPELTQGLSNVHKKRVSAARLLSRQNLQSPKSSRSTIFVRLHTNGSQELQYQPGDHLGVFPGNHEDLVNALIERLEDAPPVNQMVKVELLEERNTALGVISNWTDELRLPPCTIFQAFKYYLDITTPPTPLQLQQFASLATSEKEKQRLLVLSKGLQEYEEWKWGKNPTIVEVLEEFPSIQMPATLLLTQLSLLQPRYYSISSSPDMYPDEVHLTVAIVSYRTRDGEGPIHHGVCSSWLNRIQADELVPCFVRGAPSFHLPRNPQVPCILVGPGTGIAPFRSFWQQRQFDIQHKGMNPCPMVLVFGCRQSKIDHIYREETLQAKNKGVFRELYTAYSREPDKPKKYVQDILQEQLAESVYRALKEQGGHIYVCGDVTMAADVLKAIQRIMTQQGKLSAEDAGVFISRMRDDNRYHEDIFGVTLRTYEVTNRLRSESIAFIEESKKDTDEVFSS
Description: Inhibition of nNOS assessed as conversion of L-[3H]arginine to L-[3H]citrulline

C=CCC(=N)NCCC[C@H](N)C(=O)O
Ki: 0.1 µM

N=C(N)SCCc1cccc(CCSC(=N)N)c1
Ki: 0.25 µM

O=C(Cn1ccnc1)c1ccc([N+](=O)[O-])cc1
Ki: 105 µM

NC(=O)[C@@H]1C[C@@H](NC(=O)[C@@H](N)CCC/N=C(\N)N[N+](=O)[O-])CN1
Ki: 0.1 µM

c1ccc(-n2ccnc2)cc1
Ki: 430 µM

NC1=NCCS1
Ki: 0.41 µM

CCCC(=N)NCCC[C@H](N)C(=O)O
Ki: 5.3 µM

N=C(NCC1CC1)n1cccn1
Ki: 10 µM

N=C(N)SCCc1ccc(CCSC(=N)N)cc1
Ki: 0.016 µM

NCCCC/N=C(\N)n1cccn1
Ki: 6 µM

N[C@@H](CCCCCCc1cnc[nH]1)C(=O)O
Ki: 150 µM

CNC(=N)NN
Ki: 14 µM

Cc1nccn1CC(=O)c1ccc([N+](=O)[O-])cc1
Ki: 74 µM

CC(=N)Nc1cccc(CNO)c1
Ki: 2.1 µM

N[C@@H](CCCc1cnc[nH]1)C(=O)O
Ki: 2 µM

N[C@@H](CCCCCc1cncn1-c1ccccc1)C(=O)O
Ki: 70 µM

Cc1nc(N)sc1C
Ki: 0.38 µM

Cc1cc(C)n(C(=N)N)n1
Ki: 350 µM

CC(C)(C)SC(=N)N
Ki: 0.62 µM

Cc1cnn(C(=N)N)c1
Ki: 12 µM

Brc1ccc(OCCCCn2ccnc2)cc1
Ki: 32 µM

CC(=N)Nc1cccc(CCN)c1
Ki: 1 µM

CC(=N)Nc1cccc(N)c1
Ki: 14 µM

N=C(N)SCCN
Ki: 1.8 µM

CCC/N=C(\N)n1cccn1
Ki: 3 µM

c1ccc(-c2ccc(CCn3ccnc3)cc2)cc1
Ki: 175 µM

Cc1ccn(C(=N)N)n1
Ki: 8 µM

CC(=N)Nc1cccc(C(=N)N)c1
Ki: 0.57 µM

CC(=N)Nc1cccc(CN=C(C)N)c1
Ki: 0.37 µM

CCCCC/N=C(\N)n1cccn1
Ki: 60 µM

N[C@@H](CCCCCc1cnc[nH]1)C(=O)O
Ki: 2 µM

O=C(Cn1ccnc1)c1ccccc1[N+](=O)[O-]
Ki: 375 µM

Brc1cccc(OCCCCn2ccnc2)c1
Ki: 60 µM

Brc1ccc(OCCn2ccnc2)cc1
Ki: 125 µM

FC(F)(F)c1ccc(OCCn2ccnc2)cc1
Ki: 45 µM

CC(=N)Nc1cccc(CNCc2cccc(C(C)=N)c2)c1
Ki: 0.042 µM

CC(=N)Nc1cccc(CSC(=N)N)c1
Ki: 0.36 µM

N=C(Nc1cccc(CN)c1)n1cccn1
Ki: 2 µM

CC(=N)Nc1cccc(NC(C)=N)c1
Ki: 1.5 µM

OC(Cn1ccnc1)c1ccc(-c2ccccc2)cc1 (centres undefined)
Ki: 125 µM

CCCC/N=C(\N)n1cccn1
Ki: 14 µM

CC(C)SC(=N)N
Ki: 0.037 µM

CCCSC(=N)N
Ki: 0.63 µM

N=C(N)SCCc1ccccc1
Ki: 0.8 µM

CC(C)C/N=C(\N)n1cccn1
Ki: 45 µM

FC(F)(F)c1ccc(OCCCn2ccnc2)cc1
Ki: 75 µM

Nc1nc(CCc2ccccc2)cs1
Ki: 0.89 µM

Brc1ccc(OCCCCCCn2ccnc2)cc1
Ki: 57 µM

Brc1ccc(OCCCn2ccnc2)cc1
Ki: 125 µM

N[C@@H](CCCCc1cnc[nH]1)C(=O)O
Ki: 65 µM

N[C@@H](CCc1cnc[nH]1)C(=O)O
Ki: 170 µM

N[C@@H](CCCc1cncn1-c1ccccc1)C(=O)O
Ki: 80 µM

N[C@@H](CCCCc1cncn1-c1ccccc1)C(=O)O
Ki: 100 µM

CNCc1cccc(NC(C)=N)c1
Ki: 0.056 µM

CC(=N)Nc1cccc(S(N)(=O)=O)c1
Ki: 29 µM

N=C(N)SCc1ccc(CSC(=N)N)cc1
Ki: 0.1 µM

N=C(N)SCCCc1cccc(CCCSC(=N)N)c1
Ki: 4.8 µM

Cc1cnc(N)s1
Ki: 1.1 µM

CC(=N)Nc1cccc(CN2CCOCC2)c1
Ki: 2.8 µM

N=C(NC1CC1)n1cccn1
Ki: 50 µM

CC(=N)Nc1cccc(CN(C)C)c1
Ki: 0.17 µM

FC(F)(F)c1ccc(OCCCCn2ccnc2)cc1
Ki: 94 µM

CC(=N)Nc1cccc(NN)c1
Ki: 1.1 µM

Brc1ccccc1OCCCCn1ccnc1
Ki: 180 µM

N=C(N)SCCCc1ccccc1
Ki: 14 µM

Cc1csc(N)n1
Ki: 10 µM

N=C(NN)Nc1ccccc1
Ki: 4 µM

CCNC(=N)NN
Ki: 1 µM

CCC(=N)NCCC[C@H](N)C(=O)O
Ki: 3 µM

CC(C)=CCSC(=N)N
Ki: 2 µM

FC(F)(F)c1ccc(OCCCCCCn2ccnc2)cc1
Ki: 35 µM

N=C(NCCC[C@H](N)C(=O)N[C@@H]1CN[C@@H](C(N)=O)C1)N[N+](=O)[O-]
Ki: 1.1 µM

N=C(NN)NO
Ki: 0.68 µM

Nc1nccs1 [AMINOTHIAZOLE]
Ki: 12 µM

N=C(N)SCc1ccccc1 [BENZYL CARBAMIMIDOTHIOATE]
Ki: 14 µM

CCSC(=N)N [ETHYLISOTHIOUREA]
Ki: 0.029 µM

c1c[nH]cn1 [IMIDAZOLE]
Ki: 175 µM

N=C(N)NN [PIMAGEDINE]
Ki: 3.3 µM

N=C(N)n1cccn1 [PRAXADINE]
Ki: 0.4 µM
